According to patent US10669235B2, “Indole derivatives and their use as protein kinase inhibitors” (RESPIVERT LIMITED, priority 2016, dated 2020):
pIC50, pKi: −log10 of the molar value. Structures can show the parent of a compound that is named as a salt. Where two headings read alike, the source gives them in different places.

Key:
PDGFRβ [1] = biological target: T1, PDGFRβ (Homo sapiens (Human), UniProt P09619); assay: PDGFRβ enzyme inhibition (ADP-Glo assay); assay type: biochemical
PDGFRβ [2] = biological target: T1, PDGFRβ; assay: PDGF-BB induced phosphorylation of PDGFRβ in fibroblasts (MRC5, HTRF); assay type: cell-based; conditions: MRC5 cells, PDGFBB stimulation; read-out: PDGFBB-induced PDGFRβ phosphorylation in MRC5 cells (IC50)
MRC5 cells = assay: Cell viability assay in MRC5 cells (MTT)
PAMPA permeability assay = assay type: in vitro ADME; conditions: pH 7, PAMPA; for Papp at 5 hr, 10 μM: pH 7, 10 μM
[3] = Pharmacokinetic measurements in rats (i.v., i.t., oral); assay type: in vivo; conditions: rat; for concentration at 0.1 h: read-out: lung concentration (nM) at time 0.1 h; for concentration at 1.5 h: read-out: lung concentration (nM) at time 1.5 h; for concentration at 6 h: read-out: lung concentration (nM) at time 6 h; for concentration at 24 h: read-out: lung concentration (nM) at time 24 h
[4] = i.t. dose 0.1 (nintedanib 0.42)
[5] = i.t. dose 0.1 (nintedanib 0.42), 6 h
[6] = i.t. dose 0.1 (nintedanib 0.42), 24 h
[7] = i.v. dose 0.1 (nintedanib 0.42)
[8] = i.v. dose 0.1 (nintedanib 0.42), 6 h
[9] = i.v. dose 0.1 (nintedanib 0.42), 24 h
[10] = mean, n = 2 (nintedanib n = 34)

T1 sequence (P09619 33-1106): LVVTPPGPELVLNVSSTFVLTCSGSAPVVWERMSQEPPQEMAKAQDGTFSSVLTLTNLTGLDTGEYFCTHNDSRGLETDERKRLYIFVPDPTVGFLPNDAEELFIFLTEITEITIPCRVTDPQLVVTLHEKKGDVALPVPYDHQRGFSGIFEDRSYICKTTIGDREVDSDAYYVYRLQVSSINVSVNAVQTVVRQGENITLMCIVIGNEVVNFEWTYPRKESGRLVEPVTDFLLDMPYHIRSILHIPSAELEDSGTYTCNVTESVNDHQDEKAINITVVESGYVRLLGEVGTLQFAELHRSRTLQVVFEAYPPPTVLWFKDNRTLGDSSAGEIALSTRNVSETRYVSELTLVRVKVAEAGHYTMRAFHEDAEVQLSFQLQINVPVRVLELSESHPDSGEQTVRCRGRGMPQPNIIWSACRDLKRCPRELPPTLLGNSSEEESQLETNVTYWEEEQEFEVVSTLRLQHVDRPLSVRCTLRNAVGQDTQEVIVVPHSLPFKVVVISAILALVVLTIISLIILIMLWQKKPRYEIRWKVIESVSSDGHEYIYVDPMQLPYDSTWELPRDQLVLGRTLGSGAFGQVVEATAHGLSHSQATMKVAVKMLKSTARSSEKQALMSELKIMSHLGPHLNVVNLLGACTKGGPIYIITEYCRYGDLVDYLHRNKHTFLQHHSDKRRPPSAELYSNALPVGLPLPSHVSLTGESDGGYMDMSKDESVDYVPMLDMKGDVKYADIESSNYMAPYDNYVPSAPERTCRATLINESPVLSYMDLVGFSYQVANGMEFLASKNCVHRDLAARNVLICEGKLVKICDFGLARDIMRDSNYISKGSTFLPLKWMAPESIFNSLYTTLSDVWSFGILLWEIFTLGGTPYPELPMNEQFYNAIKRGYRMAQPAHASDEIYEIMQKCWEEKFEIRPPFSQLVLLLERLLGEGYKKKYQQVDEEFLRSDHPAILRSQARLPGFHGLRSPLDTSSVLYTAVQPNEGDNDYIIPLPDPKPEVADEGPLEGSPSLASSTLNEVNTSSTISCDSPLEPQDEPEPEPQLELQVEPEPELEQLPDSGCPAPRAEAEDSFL

## COC(=O)c1cc2c(cc1C)/C(=C(/Nc1ccc(C(=O)NCCN(C)C)cc1)c1ccccc1)C(=O)N2 [Example 2, (Z)-Methyl 3-(((4-((2-(dimethylamino)ethyl)carbamoyl)phenyl)amino)(phenyl)methylene)-5-methyl-2-oxoindoline-6-carboxylate, formate]
PDGFRβ [1]
  pKi: 7.95
PDGFRβ [2]
  pIC50: 7.44
MRC5 cells
  Cell viability at 100 nM (%): 94%
  Cell viability at 300 nM (%): 91%
  Cell viability at 1000 nM (%): 68.5%

## COC(=O)c1cc2c(cc1C)/C(=C(/Nc1ccc(C(=O)NCCN3CCC(N(C)C)CC3)cc1)c1ccccc1)C(=O)N2 [Example 6, (Z)-Methyl 3-(((4-((2-(4-(dimethylamino)piperidin-1-yl)ethyl)carbamoyl)phenyl)amino) (phenyl)methylene)-5-methyl-2-oxoindoline-6-carboxylate, formate]
PDGFRβ [2]
  pIC50: 7.88
PAMPA permeability assay
  recovery at 5 hr, 10 μM: 56.5%
  Papp at 5 hr, 10 μM: 0.012 ×10⁻⁶ cm/s
[3]
  Lung conc i.t./i.v. Ratio at time 0.1 h: 9.8
  Lung conc i.t./i.v. Ratio at time 1.5 h: 8.0
[3]; 6 h
  Lung conc i.t./i.v. Ratio at time 6 h: 8.3
[3]; 24 h
  Lung conc i.t./i.v. Ratio at time 24 h: 7.7
[3]; [4]
  BAL % administered dose at time 0.1 h: 14%
  lung/plasma conc ratio at time 0.1 h: 472
  concentration at 0.1 h: 9826 nM
  BAL % administered dose at time 1.5 h: 0.9%
  lung/plasma conc ratio at time 1.5 h: >4452
  concentration at 1.5 h: 7568 nM
[3]; [5]
  BAL % administered dose at time 6 h: 1.1%
  lung/plasma conc ratio at time 6 h: >4597
  concentration at 6 h: 7815 nM
[3]; [6]
  BAL % administered dose at time 24 h: 0.9%
  lung/plasma conc ratio at time 24 h: >3787
  concentration at 24 h: 6438 nM
[3]; [7]
  BAL % administered dose at time 0.1 h: BQL
  lung/plasma ratio at time 0.1 h: 77
  concentration at 0.1 h: 1002 nM
  BAL % administered dose at time 1.5 h: BQL
  lung/plasma ratio at time 1.5 h: >558
  concentration at 1.5 h: 949 nM
[3]; [8]
  BAL % administered dose at time 6 h: BQL
  lung/plasma ratio at time 6 h: >552
  concentration at 6 h: 939 nM
[3]; [9]
  BAL % administered dose at time 24 h: BQL
  lung/plasma ratio at time 24 h: >492
  concentration at 24 h: 837 nM
MRC5 cells
  Cell viability at 100 nM (%): 102.3%
  Cell viability at 300 nM (%): 98.9%
  Cell viability at 1000 nM (%): 91.2%

## COC(=O)c1cc2c(cc1C)/C(=C(/Nc1ccc(C(=O)NCC(=O)N3CCN(CCO)CC3)cc1)c1ccccc1)C(=O)N2 [Example 7, (Z)-Methyl 3-(((4-((2-(4-(2-hydroxyethyl)piperazin-1-yl)-2-oxoethyl)carbamoyl)phenyl)amino) (phenyl)methylene)-5-methyl-2-oxoindoline-6-carboxylate, formate]
PDGFRβ [2]
  pIC50: 8.22
PAMPA permeability assay
  recovery at 5 hr, 10 μM: 56.3%
  Papp at 5 hr, 10 μM: 0.00653 ×10⁻⁶ cm/s
[3]; male, CD, plasma, iv
  MRT: 42 min
  clearance: 75 mL/min/kg
  half-life: 36 min
[3]; male, CD, plasma, iv, read-out: Vss
  Vd: 3.4 L/kg
[3]
  Lung conc i.t./i.v. Ratio at time 0.1 h: 15.5
  Lung conc i.t./i.v. Ratio at time 1.5 h: 20.1
[3]; 6 h
  Lung conc i.t./i.v. Ratio at time 6 h: >42
[3]; 24 h
  Lung conc i.t./i.v. Ratio at time 24 h: >10
[3]; [4]
  i.t. BAV (%): 35%
  BAL % administered dose at time 0.1 h: 3.5%
  lung/plasma conc ratio at time 0.1 h: 39
  concentration at 0.1 h: 1532 nM
  BAL % administered dose at time 1.5 h: 0.6%
  lung/plasma conc ratio at time 1.5 h: >265
  concentration at 1.5 h: 886 nM
[3]; [5]
  BAL % administered dose at time 6 h: 0.1%
  lung/plasma conc ratio at time 6 h: >35
  concentration at 6 h: 116 nM
[3]; [6]
  BAL % administered dose at time 24 h: BQL
  lung/plasma conc ratio at time 24 h: >8
  concentration at 24 h: 27 nM
[3]; [7]
  BAL % administered dose at time 0.1 h: 0.06%
  lung/plasma ratio at time 0.1 h: 2
  concentration at 0.1 h: 99 nM
  BAL % administered dose at time 1.5 h: BQL
  lung/plasma ratio at time 1.5 h: 12
  concentration at 1.5 h: 44 nM
[3]; [8]
  BAL % administered dose at time 6 h: BQL
  lung concentration (nM) at time 6 h: BQL
[3]; [9]
  BAL % administered dose at time 24 h: BQL
  lung concentration (nM) at time 24 h: BQL
[3]; oral dose 3 mg/kg
  Oral BAV (%): <7%
MRC5 cells
  Cell viability at 100 nM (%): 102.9%
  Cell viability at 300 nM (%): 97.2%
  Cell viability at 1000 nM (%): 67.5%

## COC(=O)c1cc2c(cc1C)/C(=C(/Nc1cccc(C(=O)N(C)CCN(C)C)c1)c1ccccc1)C(=O)N2 [Example 16, (Z)-Methyl 3-(((3-((2-(dimethylamino)ethyl)(methyl)carbamoyl)phenyl)amino)(phenyl)methylene)-5-methyl-2-oxoindoline-6-carboxylate]
PDGFRβ [1]; [10]
  pKi: 7.89
MRC5 cells
  Cell viability at 100 nM (%): 103.2%
  Cell viability at 300 nM (%): 104.3%
  Cell viability at 1000 nM (%): 70.6%

## COC(=O)c1cc2c(cc1C)/C(=C(/Nc1ccc(C(=O)NCCN3CCC(F)(F)CC3)cc1)c1ccccc1)C(=O)N2 [Example 23, (Z)-Methyl 3-(((4-((2-(4,4-difluoropiperidin-1-yl)ethyl)carbamoyl)phenyl)amino)(phenyl)methylene)-5-methyl-2-oxoindoline-6-carboxylate]
PDGFRβ [1]; [10]
  pKi: 7.07
PDGFRβ [2]
  pIC50: 7.65
MRC5 cells
  Cell viability at 100 nM (%): 90.7%
  Cell viability at 300 nM (%): 100.5%
  Cell viability at 1000 nM (%): 62.1%

## COC(=O)c1cc2c(cc1C)/C(=C(/Nc1ccc(C(=O)NCCN3CCN(C(C)=O)CC3)cc1)c1ccccc1)C(=O)N2 [Example 24, (Z)-Methyl 3-(((4-((2-(4-acetylpiperazin-1-yl)ethyl)carbamoyl)phenyl)amino)(phenyl)methylene)-5-methyl-2-oxoindoline-6-carboxylate]
PDGFRβ [1]; [10]
  pKi: 7.90
PDGFRβ [2]
  pIC50: 7.91
MRC5 cells
  Cell viability at 100 nM (%): 125.2%
  Cell viability at 300 nM (%): 74.4%
  Cell viability at 1000 nM (%): 45.9%

## COC(=O)c1cc2c(cc1C)/C(=C(/Nc1ccc(C(=O)NCCN3CCC(F)CC3)cc1)c1ccccc1)C(=O)N2 [Example 28, (Z)-Methyl 3-(((4-((2-(4-fluoropiperidin-1-yl)ethyl)carbamoyl)phenyl)amino)(phenyl)methylene)-5-methyl-2-oxoindoline-6-carboxylate, formate]
PDGFRβ [1]
  pKi: 7.70
PDGFRβ [2]
  pIC50: 7.29
MRC5 cells
  Cell viability at 100 nM (%): 149.4%
  Cell viability at 300 nM (%): 97.6%
  Cell viability at 1000 nM (%): 83.6%

## COC(=O)c1cc2c(cc1C)/C(=C(/Nc1ccc(C(=O)N(C)C3CCN(CCO)CC3)cc1)c1ccccc1)C(=O)N2 [Example 41, (Z)-Methyl 3-(((4-((1-(2-hydroxyethyl)piperidin-4-yl)(methyl)carbamoyl)phenyl)amino)(phenyl)methylene)-5-methyl-2-oxoindoline-6-carboxylate, 0.2 formate]
PDGFRβ [1]; [10]
  pKi: 7.99
PDGFRβ [2]
  pIC50: 8.13
MRC5 cells
  Cell viability at 100 nM (%): 68.5%
  Cell viability at 300 nM (%): 56.8%
  Cell viability at 1000 nM (%): 6.2%

## COC(=O)c1cc2c(cc1C)/C(=C(/Nc1ccc(C(=O)NCCN3CCC(CO)CC3)cc1)c1ccccc1)C(=O)N2 [Example 42, (Z)-Methyl 3-(((4-((2-(4-(hydroxymethyl)piperidin-1-yl)ethyl)carbamoyl)phenyl)amino)(phenyl)methylene)-5-methyl-2-oxoindoline-6-carboxylate, 0.2 formate]
PDGFRβ [1]; [10]
  pKi: 7.84
PDGFRβ [2]
  pIC50: 7.83
MRC5 cells
  Cell viability at 100 nM (%): 82.5%
  Cell viability at 300 nM (%): 83.4%
  Cell viability at 1000 nM (%): 60.7%

## COC(=O)c1cc2c(cc1C)/C(=C(/Nc1ccc(C(=O)N3CCCN(CCO)CC3)cc1)c1ccccc1)C(=O)N2 [Example 46, (Z)-Methyl-3-(((4-(4-(2-hydroxyethyl)-1,4-diazepane-1-carbonyl)phenyl)amino)(phenyl)methylene)-5-methyl-2-oxoindoline-6-carboxylate]
PDGFRβ [1]; [10]
  pKi: 8.18
PDGFRβ [2]
  pIC50: 8.60
MRC5 cells
  Cell viability at 100 nM (%): 87%
  Cell viability at 300 nM (%): 80.2%
  Cell viability at 1000 nM (%): 18.2%

## COC(=O)c1cc2c(cc1C)/C(=C(/Nc1ccc(C(=O)N3CCC(C(N)=O)(N4CCCCC4)CC3)cc1)c1ccccc1)C(=O)N2 [Example 47, (Z)-Methyl 3-(((4-(4′-carbamoyl-[1,4′-bipiperidine]-1′-carbonyl)phenyl)amino)(phenyl)methylene)-5-methyl-2-oxoindoline-6-carboxylate]
PDGFRβ [1]; [10]
  pKi: 7.00
PDGFRβ [2]
  pIC50: 8.44
MRC5 cells
  Cell viability at 100 nM (%): 143.1%
  Cell viability at 300 nM (%): 123%
  Cell viability at 1000 nM (%): 58.5%

## COC(=O)c1cc2c(cc1C)/C(=C(/Nc1ccc(C(=O)N(C)[C@H]3CN(C)C[C@@H]3O)cc1)c1ccccc1)C(=O)N2 [Example 48, (Z)-Methyl 3-(((4-(((3S,4S)-4-hydroxy-1-methylpyrrolidin-3-yl)(methyl)carbamoyl)phenyl)amino)(phenyl)methylene)-5-methyl-2-oxoindoline-6-carboxylate, 0.4 formate]
PDGFRβ [1]; [10]
  pKi: 8.02
PDGFRβ [2]
  pIC50: 8.64
MRC5 cells
  Cell viability at 100 nM (%): 84.4%
  Cell viability at 300 nM (%): 74.4%
  Cell viability at 1000 nM (%): 14.1%
